From patent publication US9090593B2, “Bicyclic compounds as Pim inhibitors” (AMGEN INC., priority 2010, dated 2015)
Read-outs that look alike come from different tables or passages of the source.

Experiments:
[1] = target: T1, full length recombinant Pim-1 protein (Homo sapiens, UniProt P11309); experiment: Pim-1 enzyme assay (HTRF, phosphorylation of biotinylated-BAD (S112) peptide); type: biochemical; conditions: enzyme assay, Pim-1; read-out: Pim_1_IC50
T1 construct: by full length recombinant Pim-1, Pim-2, or Pim-3 protein; hexahistidine tag followed by a thrombin cleavage site (N); made in house; host or cells: Sf9 (baculovirus) or E. coli (pET28)
T1 sequence (P11309 whole entry): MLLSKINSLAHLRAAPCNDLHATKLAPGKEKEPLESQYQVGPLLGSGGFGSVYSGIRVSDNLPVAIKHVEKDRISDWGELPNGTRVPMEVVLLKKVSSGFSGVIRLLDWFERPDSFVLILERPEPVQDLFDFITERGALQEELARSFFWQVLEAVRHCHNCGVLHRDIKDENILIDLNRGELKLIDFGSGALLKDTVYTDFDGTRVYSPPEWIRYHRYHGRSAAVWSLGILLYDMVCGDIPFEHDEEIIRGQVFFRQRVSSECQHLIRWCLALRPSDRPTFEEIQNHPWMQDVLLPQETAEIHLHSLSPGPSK
In short: (§1)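 HTRF read-out: Eu-labelled anti-phospho-BAD (S112) antibody plus streptavidin-APC detect phosphorylated biotin-BAD peptide. Enzymes were full-length recombinant human Pim-1 and Pim-2; buffer 60 mM Hepes pH 7.0, 0.05% BSA, 2 mM DTT; reactions quenched with 3 mM EDTA. Percent-of-control data fitted to a 4-parameter logistic for IC50.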

[2] = target: T2, full length recombinant Pim-2 protein (Homo sapiens, UniProt Q9P1W9); experiment: Pim-2 enzyme assay (HTRF, phosphorylation of biotinylated-BAD (S112) peptide); type: biochemical; conditions: enzyme assay, Pim-2; read-out: Pim2_IC50
T2 construct: by full length recombinant Pim-1, Pim-2, or Pim-3 protein; hexahistidine tag followed by a thrombin cleavage site (N); made in house; host or cells: Sf9 (baculovirus) or E. coli (pET28)
T2 sequence (Q9P1W9 whole entry): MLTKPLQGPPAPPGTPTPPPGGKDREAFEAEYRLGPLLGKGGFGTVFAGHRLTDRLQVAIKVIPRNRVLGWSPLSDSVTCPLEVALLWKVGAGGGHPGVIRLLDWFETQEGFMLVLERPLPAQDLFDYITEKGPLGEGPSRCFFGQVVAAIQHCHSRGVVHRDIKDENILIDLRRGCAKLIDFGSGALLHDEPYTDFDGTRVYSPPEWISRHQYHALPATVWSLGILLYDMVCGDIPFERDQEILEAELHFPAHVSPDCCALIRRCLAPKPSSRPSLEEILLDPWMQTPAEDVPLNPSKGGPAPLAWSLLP
In short: as §1

[3] = target: T3, full length recombinant Pim-3 protein (Homo sapiens, UniProt Q86V86); experiment: Pim-3 enzyme assay (HTRF, phosphorylation of biotinylated-BAD (S112) peptide); type: biochemical; conditions: read-out: Pim3 IC50
T3 construct: by full length recombinant Pim-1, Pim-2, or Pim-3 protein; purchased Millipore (UK)
In short: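 HTRF read-out, streptavidin-APC plus Eu-labelled anti-phospho-BAD (S112) antibody, measures BAD peptide phosphorylation by full-length recombinant Pim-3. Buffer: 60 mM Hepes pH 7.0, 2 mM DTT, 0.05% BSA; EDTA (3 mM) stop. Percent of control per well, IC50 by 4-parameter logistic fit.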

[4] = target: T4, Pim-2 stably transfected into the U2OS human osteogenic sarcoma line (Homo sapiens, UniProt Q9P1W9); experiment: Pim cell assay, phospho-BAD normalized against total BAD, U2OS stably transfected with Pim-2; type: cell-based; conditions: read-out: Pim2_Cell_IC50; note: high dose 31.6 µM
T4 construct: expressed in transfected cells; host or cells: U2OS human osteogenic sarcoma line
T4 sequence (Q9P1W9 whole entry): as the sequence (Q9P1W9 whole entry) above
In short: (§2)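 Read-out is phospho-BAD relative to total BAD, by MSD electrochemiluminescence on lysates, expressed as % phosphoprotein = (2×phospho)/(phospho+total)×100. Engineered U2OS lines carrying stably transfected Pim-1 or Pim-2 received 10-point compound dilutions at 0.3% final DMSO after overnight culture at 37 °C; DMSO-only wells served as high control.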

[5] = target: T5, Pim-1 stably transfected into the U2OS human osteogenic sarcoma line (Homo sapiens, UniProt P11309); experiment: Pim cell assay, phospho-BAD normalized against total BAD, U2OS stably transfected with Pim-1; type: cell-based; conditions: read-out: Pim1_Cell_IC50
T5 construct: expressed in transfected cells; host or cells: U2OS human osteogenic sarcoma line
T5 sequence (P11309 whole entry): as the sequence (P11309 whole entry) above
In short: as §2

[6] = U2OS cells stably transfected with Pim-2, phospho-BAD, high dose […]
[7] = U2OS cells stably transfected with Pim-1, phospho-BAD, high dose […]

| SMILES | IC50 [1] | IC50 [2] | IC50 [3] | IC50 [4, 6] | IC50 [5, 7] | IC50 [5] | IC50 [4] |
| --- | --- | --- | --- | --- | --- | --- | --- |
| NC1CCN(c2cncc(-c3n[nH]c4ccc(-c5ccnc(N6CCOCC6)n5)cc34)n2)CC1 [Example 98, 1-(6-(5-(2-(4-morpholinyl)-4-pyrimidinyl)-1H-indazol-3-yl)-2-pyrazinyl)-4-piperidinamine] | 1 nM | 72 nM | 2 nM | > 31600 nM | – | – | – |
| CN1CCOc2cc(-c3ccc4[nH]nc(-c5cncc(O[C@@H]6CCCNC6)n5)c4c3)ccc21 [Example 123, 4-methyl-7-(3-(6-((3R)-3-piperidinyloxy)-2-pyrazinyl)-1H-indazol-5-yl)-3,4-dihydro-2H-1,4-benzoxazine] | 1 nM | 10 nM | 6 nM | 3520 nM | – | – | – |
| c1cc2c(cc1-c1ccc3[nH]nc(-c4cncc(O[C@@H]5CCCNC5)n4)c3c1)OCCO2 [Example 140, 5-(2,3-dihydro-1,4-benzodioxin-6-yl)-3-(6-((3R)-3-piperidinyloxy)-2-pyrazinyl)-1H-indazole] | 2 nM | 19 nM | 6 nM | 7780 nM | – | – | – |
| O=C(NC1CC1)c1ccnc(-c2ccc3[nH]nc(-c4cncc(O[C@@H]5CCCNC5)n4)c3c2)c1 [Example 157, N-cyclopropyl-2-(3-(6-((3R)-3-piperidinyloxy)-2-pyrazinyl)-1H-indazol-5-yl)-4-pyridinecarboxamide] | 12 nM | 32 nM | 12 nM | – | 1740 nM | – | – |
| O=C(NC1CC1)c1cncc(-c2ccc3[nH]nc(-c4cncc(O[C@@H]5CCCNC5)n4)c3c2)c1 [Example 159, N-cyclopropyl-5-(3-(6-((3R)-3-piperidinyloxy)-2-pyrazinyl)-1H-indazol-5-yl)-3-pyridinecarboxamide] | 2 nM | 71 nM | 1 nM | – | 750 nM | – | – |
| COc1cc(-c2ccc3[nH]nc(-c4cncc(O[C@@H]5CCCNC5)n4)c3c2)ccn1 [Example 160, 5-(2-methoxy-4-pyridinyl)-3-(6-((3R)-3-piperidinyloxy)-2-pyrazinyl)-1H-indazole] | 5 nM | 24 nM | 12 nM | – | 108 nM | – | – |
| Fc1cccc(F)c1-c1ccc2[nH]nc(-c3cncc(N4CCOCC4)n3)c2c1 [Example 169, 5-(2,6-difluorophenyl)-3-(6-(4-morpholinyl)-2-pyrazinyl)-1H-indazole] | 69 nM | 1640 nM | 92 nM | – | 2410 nM | – | – |
| Fc1cccc(F)c1-c1ccc2[nH]nc(-c3cncc(O[C@H]4CNC[C@@H](F)C4)n3)c2c1 [Example 196, 5-(2,6-difluorophenyl)-3-(6-(((3R,5S)-5-fluoro-3-piperidinyl)oxy)-2-pyrazinyl)-1H-indazole] | 4 nM | 19 nM | 6 nM | – | 146 nM | – | – |

Continued, values first:

| IC50 [1] | IC50 [2] | IC50 [3] | IC50 [4, 6] | IC50 [5, 7] | IC50 [5] | IC50 [4] | SMILES |
| --- | --- | --- | --- | --- | --- | --- | --- |
| 21 nM | 414 nM | 51 nM | – | 8850 nM | – | – | Fc1cccc(F)c1-c1ccc2[nH]cc(-c3cncc(NC4CCCCC4)n3)c2c1 [Example 202, N-cyclohexyl-6-(5-(2,6-difluorophenyl)-1H-indol-3-yl)-2-pyrazinamine] |
| 8 nM | 184 nM | 18 nM | – | 3050 nM | – | – | N[C@@H]1CCCN(c2cncc(-c3c[nH]c4ccc(-c5c(F)cccc5F)cc34)n2)C1 [Example 203, (3R)-1-(6-(5-(2,6-difluorophenyl)-1H-indol-3-yl)-2-pyrazinyl)-3-piperidinamine] |
| 80 nM | 987 nM | 98 nM | – | – | 2230 nM | – | O=C1CN(c2cncc(-c3c[nH]c4ccc(-c5c(F)cccc5F)cc34)n2)CCN1 [Example 204, 4-(6-(5-(2,6-difluorophenyl)-1H-indol-3-yl)-2-pyrazinyl)-2-piperazinone] |
| 47 nM | 65 nM | 28 nM | – | – | – | > 15800 nM | NC1CCN(c2cncc(-c3c[nH]c4ccc([N+](=O)[O-])cc34)n2)CC1 [Example 232, 1-(6-(5-nitro-1H-indol-3-yl)pyrazin-2-yl)piperidin-4-amine] |
